US20250352524A1, “PREVENTION OF METASTATIC OUTGROWTH USING TEAD INHIBITORS” (Georgetown University, priority 2024, published 2025)
“Also recorded” adds a separate entry of the source.

Assays:
[1] = test system: 4T1 cells; experiment: 4T1 cells injected into tail vein of BALB/c mice, lung metastasis and T-cell profiling; assay type: in vivo
Protocol: (§1) There was no difference in the primary tumor size between treatment groups nor the size of recurrent tumors at 6 weeks (FIG. 9, Panel B and FIG. 8, Panel C). […] To investigate tissue specific effects, gene expression changes between treatment groups in lung and tumor tissues were analyzed by RNA-sequencing. […] To reduce the impact of TEAD inhibition on cancer cell intrinsic function such as dissemination and invasion, 4T1, a triple negative mouse mammary carcinoma cell line (Pulaski & Ostrand-Rosenberg, 2000), was injected into the tail vein of BALB/c mice that directly seed into the lung tissue. A reduction in lung metastases, as well as the suppression of inflammatory pathways, were observed (FIG. 9, Panels E and F, and FIG. 8, Panel F).
To determine early changes in the T-cell population, lung and spleen tissues of BALB/c mice that were intravenously injected with 4T1 were processed and analyzed by flow cytometry 10 days post inoculation (FIG. 9, Panel E). […] M1-like macrophages and IL12 signaling play a critical role in the crosstalk between macrophages and T-cells triggering their proliferation and differentiation of T-cell subsets that can eliminate tumor cells unlike the pro-tumor M2-like macrophages (Guerriero, 2019; Oishi et al., 2016; Shao et al., 2023). Thus, the interplay between macrophage and T-cells after iTEAD treatment is likely to play a role in the increase in CD8+ T-cell and Th1 CD4+ cell populations in the lungs.
Formalin-fixed, paraffin embedded (FFPE) lung tissue sections were stained with hematoxylin and eosin. Immunohistochemistry staining was performed on FFPE tumor and lung tissue sections. Slides were deparaffinized in xylene and rehydrated following a series of ethanol washes. Heat-induced antigen retrieval was then performed by placing slides in warmed sodium citrate buffer (pH 6.0) (Invitrogen, 005000) in a pre-heated steamer for 20 minutes. Slides were cooled at room temperature for an additional 20 minutes, prior to quenching endogenous peroxidase activity using 3% hydrogen peroxide buffer (Fisher, BP2633500) for 10 minutes. Next, slides were incubated overnight at 4° C. with either anti-CD8 (Cell Signaling Technology, #98941), anti-CD68 (Abcam, ab303565), anti-CD206 (Cell Signaling Technology, #24595), or anti-F480 (Cell Signaling Technology, #70076). Following PBS washes, the slides are then stained with a biotinylated secondary antibody using the VECTASTAIN Elite ABC-HRP Kit according to the user's manual (Vector Laboratories, PK-6101). Positive brown staining was produced by applying ImmPACT DAB EqV Substrate Kit (Vector Laboratories, SK-4103) to the slides, which were then counterstained with hematoxylin (Sigma, MHS16). Images were captured using the Olympus BX40 microscope, and positive staining was quantified manually. Immunofluorescent staining was performed on lung tissue sections. Slides were baked at 60°, deparaffinized in xylene, rehydrated, washed in DI water and incubated with 10% neutral buffered formalin (NBF) for an additional 20 minutes to increase tissue-slide retention. Epitope retrieval/microwave treatment (MWT) for all antibodies was performed by boiling slides in Antigen Retrieval buffer 6 (AR6 pH6, Akoya AR6001KT). Protein blocking is performed using antibody diluent/blocking buffer (Akoya, ARD1001EA) for 10 minutes at room temperature. […] Slides were scanned at 10× magnification using the Vectra 3.0 Automated Quantitative Pathology Imaging System (PerkinElmer/Akoya). […]

[2] = test system: E0771 mammary carcinoma cells; experiment: E0771 mammary fat pad tumors in C57/BL6 mice, lung metastasis and lung immune profiling; assay type: in vivo; conditions: for primary tumor growth / size: 30 mg/kg daily oral gavage from palpable tumors (3 weeks), resection at week 4; for lung metastases (number of mice / incidence): 30 mg/kg daily vs vehicle, H&E lung sections
Protocol: In this study, E0771 mammary carcinoma cells were injected into the MFP of C57/BL6 mice. Treatment for this group started after tumors were palpable at 3-4 weeks. Similarly, no effect was observed on the primary tumor growth, yet lung metastases were decreased (FIG. 3, Panels A and B). […] Additionally, lung infiltrating CD8+ T-cells increased in iTEAD-treated mice (FIG. 3, Panel D).
E0771 cells were injected into the mammary fat pad of C57BL/6 mice (Johnstone et al., 2015). When primary tumors became palpable at 3 weeks, mice were treated daily with VT107 or vehicle control. Mice weights were monitored throughout treatment (FIG. 8, Panel B). Primary tumors were surgically resected at week 4 and mice were euthanized at week 6 to inspect lungs for metastases (FIG. 9, Panel A)
as §1
Formalin-fixed, paraffin embedded (FFPE) lung tissue sections were stained with hematoxylin and eosin. Immunohistochemistry staining was performed on FFPE tumor and lung tissue sections. Slides were deparaffinized in xylene and rehydrated following a series of ethanol washes. Heat-induced antigen retrieval was then performed by placing slides in warmed sodium citrate buffer (pH 6.0) (Invitrogen, 005000) in a pre-heated steamer for 20 minutes. Slides were cooled at room temperature for an additional 20 minutes, prior to quenching endogenous peroxidase activity using 3% hydrogen peroxide buffer (Fisher, BP2633500) for 10 minutes. Next, slides were incubated overnight at 4° C. with either anti-CD8 (Cell Signaling Technology, #98941), anti-CD68 (Abcam, ab303565), anti-CD206 (Cell Signaling Technology, #24595), or anti-F480 (Cell Signaling Technology, #70076). Following PBS washes, the slides are then stained with a biotinylated secondary antibody using the VECTASTAIN Elite ABC-HRP Kit according to the user's manual (Vector Laboratories, PK-6101). Positive brown staining was produced by applying ImmPACT DAB EqV Substrate Kit (Vector Laboratories, SK-4103) to the slides, which were then counterstained with hematoxylin (Sigma, MHS16). Images were captured using the Olympus BX40 microscope, and positive staining was quantified manually. Immunofluorescent staining was performed on lung tissue sections. Slides were baked at 60°, deparaffinized in xylene, rehydrated, washed in DI water and incubated with 10% neutral buffered formalin (NBF) for an additional 20 minutes to increase tissue-slide retention. Epitope retrieval/microwave treatment (MWT) for all antibodies was performed by boiling slides in Antigen Retrieval buffer 6 (AR6 pH6, Akoya AR6001KT). Protein blocking is performed using antibody diluent/blocking buffer (Akoya, ARD1001EA) for 10 minutes at room temperature. Slides were incubated with Luciferase antibody (Sigma, #L0159) for 1 hour and OPAL Fluoresce 620 then counterstained with spectral DAPI (Akoya FP1490) for 5 min and mounted with ProLong Diamond Antifade (ThernoFisher, P36961). Slides were scanned at 10× magnification using the Vectra 3.0 Automated Quantitative Pathology Imaging System (PerkinElmer/Akoya).
Single cell suspensions were washed 2× with PBS. […]

[3] = flow cytometry, tumor bearing mice
[4] = flow cytometry, tumor bearing mice, listed as iTEAD

Substance: VT107
- inflammatory pathways in lungs ([1]; 30 mg/kg VT107 daily): suppression
- lung metastases ([1]; 30 mg/kg VT107 daily by oral gavage vs vehicle): reduction
- T-bet staining in the lungs ([1]; IHC, week 2): significant increase
- overall abundance of CD4+ and CD8+ T-cell populations ([1]; flow cytometry 10 days post inoculation): no difference
- helper 1 T-cell (Th1) population ([1]; flow cytometry 10 days post inoculation, lung): increased
- primary tumor growth / size [2]: no difference
- primary tumor growth / size ([2]; listed as iTEAD): no effect; also recorded: no change
- lung metastases (number of mice / incidence) [2]: significantly less incidence
- lung metastases (number of mice / incidence) ([2]; listed as iTEAD): decreased; also recorded: reduced
- number of CD8+ T-cells in lung tissue ([2]; CD8 immunohistochemistry, tumor bearing mice, listed as iTEAD): increase in the number and infiltration; also recorded: significantly greater
- CD8+ T-cells in lung metastatic lesions ([2]; CD8 immunohistochemistry, listed as iTEAD): infiltrated into lung metastases
- number of gene changes due to treatment, lungs compared to primary tumors ([2]; RNA-sequencing): higher number
- size of recurrent tumors ([2]; at 6 weeks, 2 weeks after resection): no difference
- CD86 (M1-like) in the lung macrophage population [2, 3]: significantly enriched
- CD86/CD206 shift in the alveolar macrophage population [2, 3]: also significant
- CD206 (M2-like) in the lung macrophage population [2, 3]: significantly reduced
- infiltrating macrophages / monocytes in the lungs [2, 4]: significant decrease
- lung infiltrating CD8+ T-cells [2, 4]: increased; also recorded: higher numbers
- resident alveolar macrophages in the lungs [2, 4]: higher frequency; also recorded: significant increase
- LXR/RXR anti-inflammatory pathway in lung tissues ([2]; pathway analysis): increased
- disease-related inflammation pathways (hepatic and lung fibrosis, cardiac hypertrophy) in lung tissues ([2]; pathway analysis): decrease
